Measurements: patent publication US7638537B2, “Pyrazole compounds as transforming growth factor (TGF) inhibitors” (Pfizer Inc., priority 2002, dated 2009)

Biological target: T1, ALK-5 (TβRI) (Homo sapiens, UniProt P36897)
T1 construct: using either the kinase domain of ALK5 with Smad3 as substrate; GST
T1 sequence (P36897 205-495 limits assumed): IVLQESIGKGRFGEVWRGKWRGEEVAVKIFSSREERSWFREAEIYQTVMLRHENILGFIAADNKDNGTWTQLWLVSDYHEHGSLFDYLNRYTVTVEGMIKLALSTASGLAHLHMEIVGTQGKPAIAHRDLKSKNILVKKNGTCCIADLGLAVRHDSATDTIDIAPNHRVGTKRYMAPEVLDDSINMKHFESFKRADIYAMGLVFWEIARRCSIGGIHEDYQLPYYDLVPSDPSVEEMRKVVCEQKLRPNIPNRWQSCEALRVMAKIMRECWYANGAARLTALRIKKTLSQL
Test: ALK-5 (TβRI) Kinase Assay
Assay type: biochemical
Description: The kinase assays were performed with 65 nM GST-ALK5 and 84 nM GST-Smad3 in 50 mM HEPES, 5 mM MgCl2, 1 mM CaCl2, 1 mM dithiothreitol, and 3_M ATP. Reactions were incubated with 0.5_Ci of [33 P]_ATP for 3 h at 30° C. Phosphorylated protein was captured on P-81 paper (Whatman, Maidstone, England), washed with 0.5% phosphoric acid, and counted by liquid scintillation. Alternatively, Smad3 or Smad1 protein was also coated onto FlashPlate Sterile Basic Microplates (PerkinElmer Life Sciences, Boston, Mass.). Kinase assays were then performed in Flash-Plates with same assay conditions using either the kinase domain of ALK5 with Smad3 as substrate or the kinase domain of ALK6 (BMP receptor) with Smad1 as substrate. Plates were washed three times with phosphate buffer and counted by TopCount (Packard Bio-science, Meriden, Conn.). (Laping, N. J. et al. Molecular Pharmacology 62:58-64 (2002)).

`c1ccc(-c2n[nH]cc2-c2ccc3c(c2)OCO3)nc1` [Example 7, 2-(4-Benzo[1,3]dioxol-5-yl-1H-pyrazol-3-yl)-pyridine] was tested, and the IC50 was about 51 nM.
